Reference: US8609852B2, “Thiazolyl mGluR5 antagonists and methods for their use” (Merck Sharp & Dohme Corp., priority 2004, dated 2013)

Key:
[1] = aqueous medium
hmGluR5 = hmGluR5 (Homo sapiens (Human), UniProt P41594); assay: Phosphatidylinositol Hydrolysis (IP) Assay; type: cell-based; settings: hmGluR5/L38-20 cells
Procedure: Inositol phophate assays were performed as described by Berridge et al. (1982) (Berridge et al, (1982) Biochem. J. 206: 587-5950; and Nakajima et al., J. Biol. Chem. 267:2437-2442 (1992)) with slight modifications. Mouse fibroblast Ltk cells expressing hmGluR5 (hmGluR5/L38-20 cells) were seeded in 24-well plates at a density of 8×10^5 cells/well. […] of [^3H]-inositol (Amersham PT6-271; Arlington Heights, Ill.; specific activity=17.7 Ci/mmol) was added to each well and incubated for 16 h at 37° C. Cells were washed twice and incubated for 45 min in 0.5 ml of standard Hepes buffered saline buffer (HBS; 125 mM NaCl, 5 mM KCl, […] MgS04, 1.8 mM CaCl2, 20 mM HEPES, 6 mM glucose, pH to 7.4). The cells were washed with HBS containing 10 mM LiCl, and 400 ill buffer added to each well. Cells were incubated at 37° C. for 20 min. For testing, […], of 10× compounds used in the practice of the invention [made in HBS/LiCl (100 mM)] was added and incubated for 10 minutes. Cells were activated by the addition of […] glutamate, and the plates left for 1 hour at 37° C.
The incubations were terminated by the addition of 1 mL ice-cold methanol to each well. In order to isolate inositol phosphates (IPs), the cells were scraped from wells, and placed in numbered glass test tubes. […] Scintillant was added to each vial, and the vials shaken, and counted in a scintillation counter after 2 hours. […]

[2] = biological target: metabotropic glutamate receptor subtype 5 (Rattus norvegicus (Rat), UniProt P31424); assay: [3H]-mGluR5 Antagonist Binding to Rodent Brain Membranes
Sequence of metabotropic glutamate receptor subtype 5 (P31424 21-1203): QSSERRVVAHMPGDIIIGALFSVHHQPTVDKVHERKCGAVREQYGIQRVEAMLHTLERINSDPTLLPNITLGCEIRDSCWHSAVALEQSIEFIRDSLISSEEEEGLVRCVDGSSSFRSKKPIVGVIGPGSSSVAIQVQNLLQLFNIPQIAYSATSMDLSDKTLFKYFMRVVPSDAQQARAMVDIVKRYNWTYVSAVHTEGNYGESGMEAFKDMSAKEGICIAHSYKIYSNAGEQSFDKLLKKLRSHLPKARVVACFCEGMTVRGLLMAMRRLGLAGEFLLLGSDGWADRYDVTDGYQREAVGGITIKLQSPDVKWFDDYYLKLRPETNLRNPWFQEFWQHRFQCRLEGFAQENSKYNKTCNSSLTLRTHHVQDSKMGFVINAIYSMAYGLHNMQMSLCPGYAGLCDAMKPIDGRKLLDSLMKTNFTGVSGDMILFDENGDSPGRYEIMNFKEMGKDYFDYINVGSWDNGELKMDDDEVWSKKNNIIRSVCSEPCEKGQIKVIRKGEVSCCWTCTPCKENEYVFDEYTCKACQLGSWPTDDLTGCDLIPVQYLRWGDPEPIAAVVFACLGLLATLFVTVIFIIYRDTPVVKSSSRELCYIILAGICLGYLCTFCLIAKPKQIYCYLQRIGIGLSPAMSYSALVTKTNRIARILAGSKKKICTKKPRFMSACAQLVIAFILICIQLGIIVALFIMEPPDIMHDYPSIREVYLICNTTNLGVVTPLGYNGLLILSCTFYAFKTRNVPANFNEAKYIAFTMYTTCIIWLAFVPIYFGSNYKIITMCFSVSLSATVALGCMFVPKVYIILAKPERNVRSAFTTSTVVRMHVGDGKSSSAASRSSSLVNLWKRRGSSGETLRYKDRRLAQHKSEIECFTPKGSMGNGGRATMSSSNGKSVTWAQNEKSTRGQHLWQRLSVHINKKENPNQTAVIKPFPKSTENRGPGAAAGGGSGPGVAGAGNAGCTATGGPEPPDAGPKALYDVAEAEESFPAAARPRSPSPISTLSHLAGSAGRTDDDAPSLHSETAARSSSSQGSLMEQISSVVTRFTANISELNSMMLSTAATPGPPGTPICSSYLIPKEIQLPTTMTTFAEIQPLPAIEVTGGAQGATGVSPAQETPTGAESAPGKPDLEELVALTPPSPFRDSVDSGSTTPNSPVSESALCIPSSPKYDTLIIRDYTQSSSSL
Procedure: In accordance with Anderson J J, Rao S P, Rowe B, Giracello D R, Holtz G, Chapman D F, Tehrani L, Bradbury M J, Cosford N D, Varney M A, [^3H]Methoxymethyl-3-[(2-methyl-1,3-thiazol-4-yl)ethynyl]pyridine binding to metabotropic glutamate receptor subtype 5 in rodent brain: in vitro and in vivo characterization. J Pharmacol Exp Ther. 2002 December; 303 (3):1044-51, membranes were prepared (as described in Ransom R W and Stec N L (1988) Cooperative modulation of [^3H]MK-801 binding to the N-methyl-D-aspartate receptor-ion channel complex by L-glutamate, glycine, and polyamines. J Neurochem 51:830-836) using whole rat brain, or mGlu5^+/+ or mGlu5^−/− whole mouse brain.
Binding assays were performed as described in Schaffhauser H, Richards J G, Cartmell J, Chaboz S, Kemp J A, Klingelschmidt A, Messer J, Stadler H, Woltering T and Mutel V (1998) In vitro binding characteristics of a new selective group II metabotropic glutamate receptor radioligand, [^3H]LY354740, in rat brain. Mol Pharmacol 53:228-233) at room temperature with slight modifications. Briefly, membranes were thawed and washed once with assay buffer (50 mM HEPES, 2 mM MgCl2, pH 7.4), followed by centrifugation at 40,000×g for 20 min. The pellet was resuspended in assay buffer and briefly homogenized with a Polytron.
For protein linearity experiments, increasing concentrations of membrane protein were added to 96-well plates in triplicate and binding was initiated by addition of 20 nM [^3H]methoxymethyl-3-[(2-methyl-1,3-thiazol-4-yl)ethynyl]pyridine. The assay was incubated for 2 h and non-specific binding was determined using 10 μM MPEP. The binding was terminated by rapid filtration through glass-fiber filters (Unifilter-96 GF/B plate, Packard) using a 96-well plate Brandel cell harvester. Following addition of scintillant, the radioactivity was determined by liquid scintillation spectrometry. Protein measurements were performed by BioRad-DC Protein assay using bovine serum albumin as the standard.
Saturation binding experiments were performed in triplicate with increasing concentrations of [^3H]methoxymethyl-3-[(2-methyl-1,3-thiazol-4-yl)ethynyl]pyridine (1 pM to 100 nM). The time course of association was measured by the addition of 10 nM [^3H]methoxymethyl-3-[(2-methyl-1,3-thiazol-4-yl)ethynyl]pyridine to the membranes at different time points (0-240 min), followed by filtration. Dissociation was measured by the addition of 100 μM unlabeled methoxymethyl-3-[(2-methyl-1,3-thiazol-4-yl)ethynyl]pyridine at different time points to membranes previously incubated for 3 h with 10 nM [^3H]methoxymethyl-3-[(2-methyl-1,3-thiazol-4-yl)ethynyl]pyridine. For competition experiments, 100 μg membrane protein and 10 nM [^3H]methoxymethyl-3-[(2-methyl-1,3-thiazol-4-yl)ethynyl]pyridine was added to wells containing increasing concentration of the test compound in duplicate (methoxymethyl-3-[(2-methyl-1,3-thiazol-4-yl)ethynyl]pyridine or MPEP). [^3H]-3-Methoxy-5-(pyridin-2-ylethynyl)pyridine may also be used as the radioligand in the procedure described above. (See, Cosford, N. D. P.; Roppe, J.; Tehrani, L.; Seiders, T. J.; Schweiger, E. J. et al. [3H]-Methoxymethyl-MTEP and [3H]-methoxy-PEPy): Potent and selective radioligands for the Metabotropic Glutamate Subtype 5 (mGlu5) Receptor. Bioorg. Med. Chem. Lett. 2003, 13, 351-354.)

hmGluR5a receptor = hmGluR5a receptor (Homo sapiens (Human), UniProt P41594); assay: Calcium Flux Assay; type: cell-based; settings: hmGluR5a/L38-20 cells, glutamate-evoked [Ca2+]i
Sequence of hmGluR5a receptor (P41594 other isoform, or with tags, fused parts or gaps): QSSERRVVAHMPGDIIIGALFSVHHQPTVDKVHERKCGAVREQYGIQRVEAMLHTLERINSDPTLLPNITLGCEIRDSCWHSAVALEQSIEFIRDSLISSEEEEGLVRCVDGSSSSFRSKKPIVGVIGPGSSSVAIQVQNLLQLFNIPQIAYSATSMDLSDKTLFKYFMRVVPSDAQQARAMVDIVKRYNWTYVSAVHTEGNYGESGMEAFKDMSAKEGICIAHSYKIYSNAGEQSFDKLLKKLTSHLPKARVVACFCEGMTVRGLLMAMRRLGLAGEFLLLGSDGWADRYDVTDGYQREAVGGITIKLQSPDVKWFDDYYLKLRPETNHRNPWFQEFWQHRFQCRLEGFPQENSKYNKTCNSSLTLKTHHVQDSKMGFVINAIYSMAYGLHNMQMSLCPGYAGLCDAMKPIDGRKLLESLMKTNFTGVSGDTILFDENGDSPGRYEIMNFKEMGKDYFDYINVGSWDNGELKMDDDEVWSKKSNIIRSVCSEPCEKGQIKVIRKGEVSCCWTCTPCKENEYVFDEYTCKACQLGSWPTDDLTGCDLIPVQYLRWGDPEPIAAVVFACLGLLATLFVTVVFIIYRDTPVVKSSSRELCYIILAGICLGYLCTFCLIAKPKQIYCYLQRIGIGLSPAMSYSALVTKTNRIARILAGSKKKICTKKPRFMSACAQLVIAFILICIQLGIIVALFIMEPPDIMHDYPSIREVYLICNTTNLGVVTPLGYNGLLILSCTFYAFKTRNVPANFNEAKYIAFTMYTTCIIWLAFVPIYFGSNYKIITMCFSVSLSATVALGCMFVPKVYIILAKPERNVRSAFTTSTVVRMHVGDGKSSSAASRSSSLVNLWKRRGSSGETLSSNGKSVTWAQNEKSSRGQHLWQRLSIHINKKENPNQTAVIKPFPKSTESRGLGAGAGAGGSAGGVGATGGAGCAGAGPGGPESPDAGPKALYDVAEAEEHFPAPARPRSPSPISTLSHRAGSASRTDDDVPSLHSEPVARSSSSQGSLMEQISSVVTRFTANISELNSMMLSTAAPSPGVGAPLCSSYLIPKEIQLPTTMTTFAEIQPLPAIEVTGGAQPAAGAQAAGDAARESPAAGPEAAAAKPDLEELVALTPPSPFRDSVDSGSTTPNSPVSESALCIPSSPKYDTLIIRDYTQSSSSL
Procedure: The activity of compounds was examined against the hmGluR5a receptor stably expressed in mouse fibroblast Ltk− cells (the hmGluR5a/L38-20 cell line). See generally Daggett et al., Neuropharmacology 34:871-886 (1995). Receptor activity was detected by changes in intracellular calcium ([Ca^2+]i) measured using the fluorescent calcium-sensitive dye, fura-2. hmGluR5a/L38-20 cells were plated onto 96-well plates, and loaded with 3 µM fura-2 for 1 h. Unincorporated dye was washed from the cells, and the cell plate was transferred to a custom-built 96-channel fluorimeter (SIBIA-SAIC, La Jolla, Calif.) which is integrated into a fully automated plate handling and liquid delivery system. Cells were excited at 350 and 385 nm with a xenon source combined with optical filters. Emitted light was collected from the sample through a dichroic mirror and a 510 nm interference filter and directed into a cooled CCD camera (Princeton Instruments). Image pairs were captured approximately every 1 s, and ratio images were generated after background subtraction. After a basal reading of 20 s, an EC80 concentration of glutamate ([…]) was added to the well, and the response evaluated for another 60 s. The glutamate-evoked increase in [Ca^2+]i in the presence of the screening compound was compared to the response of glutamate alone (the positive control).

Sequence of hmGluR5 (P41594 other isoform, or with tags, fused parts or gaps): as above

SMILES | solubility [1] | IC50 (hmGluR5) [nM] | Ki [2] [nM] | IC50 (hmGluR5a receptor) [nM]
C(#Cc1nccs1)c1ccccc1.Cc1ccc(S(=O)(=O)O)cc1 [2-(phenylethynl)-1,3-thiazole] | soluble in aqueous medium | – | – | –
Cc1nc(C#Cc2ccc(-c3cc(F)cc(C#N)c3)nc2)cs1 [Example 1, 3-fluoro-5-{5-[(2-methyl-1,3-thiazol-4-yl)ethynyl]pyridin-2-yl}benzonitrile] | – | 33 | 20 | 3
Cc1nc(C#Cc2ccc(-n3ccc4ccncc43)nc2)cs1 [Example 18, 1-{5-[(2-methyl-1,3-thiazol-4-yl)ethynyl]pyridin-2-yl}-1H-pyrrolo[2,3-c]pyridine] | – | 2 | 19.3 | 4.9
CCC(C)Nc1ncc(C#Cc2csc(C)n2)cn1 (stereo not drawn) [Example 94] | – | – | 6 | 9
Cc1nc(C#Cc2cnc(O[C@@H](C)c3ccccc3)nc2)cs1 [Example 95] | – | – | 9 | 8
Cc1nc(C#Cc2cnc(N3CCCCC3C)nc2)cs1 (stereo not drawn) [Example 96] | – | – | 5 | 5
Cc1nc(C#Cc2cnc(N3CCCC3)nc2)cs1 [Example 97] | – | – | 13 | 5
CCN(CC)c1ncc(C#Cc2csc(C)n2)cn1 [Example 98] | – | – | 8 | 4
Cc1nc(C#Cc2cnc(-n3ccc4ccncc43)nc2)cs1 [Example 99] | – | – | 33 | 2.8
Cc1nc(C#Cc2cnc(N3CCSCC3)nc2)cs1 [Example 100] | – | – | 23 | 2.3
Cc1nc(C#Cc2cnc(OC3CCN(C(=O)OC(C)(C)C)CC3)nc2)cs1 [Example 101] | – | – | 24 | 2
Cc1nc(C#Cc2cnc(NC3CCCC3)nc2)cs1 [Example 102] | – | – | 26 | 2
Cc1nc(C#Cc2cnc(N3CCCC(C)C3)nc2)cs1 (stereo not drawn) [Example 103] | – | – | 1.6 | 1.6
Cc1nc(C#Cc2cnc(N3CC=CC3)nc2)cs1 [Example 104] | – | – | 6 | 1.5
Cc1nc(C#Cc2cnc(NC(C)(C)C)nc2)cs1 [Example 105] | – | – | 1 | 1
Cc1nc(C#Cc2cnc(N3CCCCC3CO)nc2)cs1 (stereo not drawn) [Example 107] | – | – | 9 | 16
